In PubChem BioAssay AID248 (DTP/NCI, 2004):
Toxic doses and inconclusive results are not listed. Cut-off read from the data, not from the text of the source: active = T/C of 150% or more; inactive = T/C below 125%.

System: L1210 leukemia ip in BDF1 mice, survival T/C
Test: NCI In Vivo Anticancer Drug Screen. Data for tumor model L1210 Leukemia (intraperitoneal) in B6D2F1 (BDF1) mice
Conditions: endpoint: mean survival time, higher = longer survival
Summary of the method: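 Transplanted-tumor mice were given test agent; controls received vehicle only. Survival readings from the two groups were divided (treated over control).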

[1] = dose: 100.0 mg/kg/injection, schedule: Q04DX003 (ip), vehicle: saline with Tween-80
[2] = dose: 200.0 mg/kg/injection, schedule: Q04DX003 (ip), vehicle: saline with Tween-80
[3] = dose: 400.0 mg/kg/injection, schedule: Q04DX003 (ip), vehicle: saline with Tween-80
[4] = dose: 100.0 mg/kg/injection, schedule: Q01DX009 (ip), vehicle: saline with Tween-80
[5] = dose: 200.0 mg/kg/injection, schedule: Q01DX009 (ip), vehicle: saline with Tween-80
[6] = dose: 400.0 mg/kg/injection, schedule: Q01DX009 (ip), vehicle: saline with Tween-80
[7] = dose: 100.0 mg/kg/injection, schedule: Q04DX003 (ip), vehicle: Klucel (hydroxypropylcellulose) (HPC)
[8] = dose: 200.0 mg/kg/injection, schedule: Q04DX003 (ip), vehicle: Klucel (hydroxypropylcellulose) (HPC)
[9] = dose: 400.0 mg/kg/injection, schedule: Q04DX003 (ip), vehicle: Klucel (hydroxypropylcellulose) (HPC)
[10] = dose: 100.0 mg/kg/injection, schedule: Q04DX003 (ip), vehicle: saline
[11] = dose: 200.0 mg/kg/injection, schedule: Q04DX003 (ip), vehicle: saline
[12] = dose: 400.0 mg/kg/injection, schedule: Q04DX003 (ip), vehicle: saline
[13] = dose: 100.0 mg/kg/injection, schedule: Q04DX002 (ip), vehicle: saline with Tween-80
[14] = dose: 200.0 mg/kg/injection, schedule: Q04DX002 (ip), vehicle: saline with Tween-80
[15] = dose: 100.0 mg/kg/injection, schedule: Q01DX009 (ip), vehicle: saline
[16] = dose: 200.0 mg/kg/injection, schedule: Q01DX009 (ip), vehicle: saline
[17] = dose: 100.0 mg/kg/injection, schedule: Q01DX001 (ip), vehicle: saline
[18] = dose: 200.0 mg/kg/injection, schedule: Q01DX001 (ip), vehicle: saline
[19] = dose: 400.0 mg/kg/injection, schedule: Q01DX001 (ip), vehicle: saline

Measured: T/C

COC(=O)c1cc(C(C)=O)nc2ccccc12
inactive: [1] 94 % of control | [2] 99 % of control | [3] 90 % of control

CCCCCCCCCCC(=O)CCCC
inactive: [4] 100 % of control | [5] 102 % of control | [6] 104 % of control

Cc1ccc2nc(Nc3ccc(Cl)cc3)cc(C(O)C3CCCCN3)c2c1 (stereo not drawn)
inactive: [7] 96 % of control | [8] 92 % of control | [9] 97 % of control

Cc1[nH]nc2c(=O)[nH]c(=O)[nH]c12
inactive: dose: 75.0 mg/kg/injection, schedule: Q01DX001 (ip), vehicle: saline 100 % of control | dose: 150.0 mg/kg/injection, schedule: Q01DX001 (ip), vehicle: saline 103 % of control | dose: 300.0 mg/kg/injection, schedule: Q01DX001 (ip), vehicle: saline 107 % of control

CC(=O)OC1C=CC(Oc2ccc([N+](=O)[O-])cc2)OC1CO (stereo not drawn)
inactive: [10] 93 % of control | [11] 91 % of control | [12] 96 % of control

C=CCCC(C)=O
inactive: [13] 102 % of control | [14] 102 % of control | dose: 400.0 mg/kg/injection, schedule: Q04DX002 (ip), vehicle: saline with Tween-80 102 % of control

CC(=O)OC(C)CN(C)C (stereo not drawn)
inactive: [15] 103 % of control | [10] 103 % of control | [16] 100 % of control | [11] 105 % of control | dose: 400.0 mg/kg/injection, schedule: Q01DX009 (ip), vehicle: saline 100 % of control | [12] 93 % of control

Cc1nc(N)nc(N)c1-c1ccc([N+](=O)[O-])cc1
inactive: dose: 100.0 mg/kg/injection, schedule: Q01DX001 (ip), vehicle: carboxymethylcellulose (CMC) 95 % of control | dose: 200.0 mg/kg/injection, schedule: Q01DX001 (ip), vehicle: carboxymethylcellulose (CMC) 95 % of control

CCNc1nc(Cl)nc(C(Cl)(Cl)Cl)c1Cl (tested in a mixture with another compound)
inactive: dose: 100.0 mg/kg/injection, schedule: Q04DX002 (ip), vehicle: Klucel (hydroxypropylcellulose) (HPC) 104 % of control | dose: 200.0 mg/kg/injection, schedule: Q04DX002 (ip), vehicle: Klucel (hydroxypropylcellulose) (HPC) 96 % of control | dose: 400.0 mg/kg/injection, schedule: Q04DX002 (ip), vehicle: Klucel (hydroxypropylcellulose) (HPC) 100 % of control

O=C(O)/C=C/Sc1ccc(Cl)cc1
inactive: dose: 50.0 mg/kg/injection, schedule: Q01DX009 (ip), vehicle: saline with Tween-80 94 % of control | [4] 94 % of control | [13] 95 % of control | [5] 94 % of control | [14] 92 % of control

CN(C)CCCNc1nc(Cl)nc(Cl)n1
inactive: dose: 50.0 mg/kg/injection, schedule: Q01DX009 (ip), vehicle: saline 96 % of control | [15] 92 % of control | [16] 96 % of control

Cc1cc(=O)c2cc(Cl)cc(Br)c2[nH]1
inactive: [17] 94 % of control | [18] 96 % of control | [19] 103 % of control

CC(=O)Oc1c2cccc3c(=O)c4cccc5c4-c(c23)c2c1cccc2c5=O
inactive: [1] 95 % of control | [2] 95 % of control | [3] 101 % of control

Cc1nc2ccccc2c(=O)n1C(C)(C)CCl
inactive: [1] 95 % of control | [2] 92 % of control | [3] 95 % of control

Cc1ccc(OCCOc2ccc([N+](=O)[O-])cc2)cc1
inactive: [7] 96 % of control | [8] 93 % of control | [9] 91 % of control

CC(C)(C)CC(C)(C)NS(=O)(=O)NC(C)(C)CC(C)(C)C
inactive: [4] 103 % of control | [5] 93 % of control | [6] 92 % of control

S=C(SNC1CCCCC1)SNC1CCCCC1
inactive: [17] 103 % of control | [7] 114 % of control | [18] 94 % of control | [8] 105 % of control | [19] 105 % of control | [9] 107 % of control
